Reference: ChEMBL document CHEMBL1124217, “2,4-Diamino-5-benzylpyrimidines and analogues as antibacterial agents. 9. Lipophilic trimethoprim analogues as antigonococcal agents” (J Med Chem, 1988)
Converted amounts (≈) assume the structure as drawn.

How the values were obtained:
Rattus norvegicus [1] = experiment: Conc in brain of male rat 1 hr after administration of dose; type: functional, organism-based
Rattus norvegicus [2] = experiment: Conc in ovary of female rat 0.50 hr after administration of dose; type: functional, organism-based; details: Female gonad
Rattus norvegicus [3] = experiment: Conc in muscle of male rat 24 hr after administration of dose; type: functional, organism-based; details: Muscle tissue
Rattus norvegicus [4] = experiment: Conc in muscle of male rat 0.50 hr after administration of dose; type: functional, organism-based; details: Muscle tissue
Rattus norvegicus [5] = experiment: Conc in kidney of male rat 1 hr after administration of dose; type: functional, organism-based
Rattus norvegicus [6] = experiment: Conc in testes of male rat 6 hr after administration of dose; type: functional, organism-based; details: Testis
Rattus norvegicus [7] = experiment: Conc in intestine of male rat 1 hr after administration of dose; type: functional, organism-based
Rattus norvegicus [8] = experiment: Conc in serum of male rat 3h after administration of dose; type: functional, organism-based
Rattus norvegicus [9] = experiment: Conc in liver of male rat 3h after administration of dose; type: functional, organism-based
Rattus norvegicus [10] = experiment: Conc in testes of male rat 0.25 hr after administration of dose; type: functional, organism-based; details: Testis
Rattus norvegicus [11] = experiment: Conc in testes of male rat 1.5h after administration of dose; type: functional, organism-based; details: Testis
Rattus norvegicus [12] = experiment: Conc in brain of male rat 0.75h after administration of dose; type: functional, organism-based
Rattus norvegicus [13] = experiment: Conc in serum of female rat 0.50 hr after administration of dose; type: functional, organism-based
Rattus norvegicus [14] = experiment: Conc in lung of male rat 1 hr after administration of dose; type: functional, organism-based
Rattus norvegicus [15] = experiment: Conc in brain of male rat 4 hr after administration of dose; type: functional, organism-based
Rattus norvegicus [16] = experiment: Conc in lung of male rat 2 hr after administration of dose; type: functional, organism-based
Rattus norvegicus [17] = experiment: Conc in kidney of male rat 1.5h after administration of dose; type: functional, organism-based
Rattus norvegicus [18] = experiment: Conc in serum of female rat 10h after administration of dose; type: functional, organism-based
Rattus norvegicus [19] = experiment: Conc in muscle of male rat 2 hr after administration of dose; type: functional, organism-based; details: Muscle tissue
Rattus norvegicus [20] = experiment: Conc in serum of female rat 6 hr after administration of dose; type: functional, organism-based
Rattus norvegicus [21] = experiment: Conc in stomach of male rat 2 hr after administration of dose; type: functional, organism-based
Rattus norvegicus [22] = experiment: Conc in intestine of male rat 6 hr after administration of dose; type: functional, organism-based
Rattus norvegicus [23] = experiment: Conc in serum of female rat 24 hr after administration of dose; type: functional, organism-based
Rattus norvegicus [24] = experiment: Conc in lung of male rat 0.50 hr after administration of dose; type: functional, organism-based
Rattus norvegicus [25] = experiment: Conc in brain of male rat 10h after administration of dose; type: functional, organism-based
Dihydrofolate reductase = target: T1, Dihydrofolate reductase (Rattus norvegicus, UniProt Q920D2); experiment: Inhibition of Rat liver Dihydrofolate reductase(DHFR); details: read-out: I50
T1 sequence (Q920D2 whole entry): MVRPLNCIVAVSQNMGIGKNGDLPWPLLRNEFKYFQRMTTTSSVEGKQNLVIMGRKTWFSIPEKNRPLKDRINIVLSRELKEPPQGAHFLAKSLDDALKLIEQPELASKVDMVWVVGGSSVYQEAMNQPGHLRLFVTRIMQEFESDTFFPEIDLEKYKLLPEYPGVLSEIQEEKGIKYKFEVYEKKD

Rattus norvegicus [26] = experiment: Conc in brain of male rat 2 hr after administration of dose; type: functional, organism-based
Rattus norvegicus [27] = experiment: Conc in brain of male rat 0.25 hr after administration of dose; type: functional, organism-based
Rattus norvegicus [28] = experiment: Conc in serum of female rat 4 hr after administration of dose; type: functional, organism-based
Rattus norvegicus [29] = experiment: Conc in ovary of female rat 1.5h after administration of dose; type: functional, organism-based; details: Female gonad
Rattus norvegicus [30] = experiment: Conc in liver of male rat after 0.75h administration of dose; type: functional, organism-based
Rattus norvegicus [31] = experiment: Conc in intestine of male rat 0.50 hr after administration of dose; type: functional, organism-based
Proteus vulgaris = experiment: Inhibition of growth of Proteus vulgaris (CN329) measured as MIC compound/MIC Trimethoprim; type: functional
Klebsiella pneumoniae = experiment: Inhibition of growth of Klebsiella pneumoniae (CN3632) measured as MIC compound/MIC Trimethoprim; type: functional
Rattus norvegicus [32] = experiment: Conc in intestine of male rat 10h after administration of dose; type: functional, organism-based
Rattus norvegicus [33] = experiment: Conc in serum of male rat 1.5h after administration of dose; type: functional, organism-based
Rattus norvegicus [34] = experiment: Conc in lung of male rat 1.5h after administration of dose; type: functional, organism-based
Rattus norvegicus [35] = experiment: Conc in lung of male rat after 0.25 hr administration of dose; type: functional, organism-based
Rattus norvegicus [36] = experiment: Conc in testes of male 1 hr rat after administration of dose; type: functional, organism-based; details: Testis
Rattus norvegicus [37] = experiment: Conc in liver of male rat 6 hr after administration of dose; type: functional, organism-based
Rattus norvegicus [38] = experiment: Conc in ovary of female rat 0.75h after administration of dose; type: functional, organism-based; details: Female gonad
Rattus norvegicus [39] = experiment: Conc in liver of male rat after 0.25 hr administration of dose; type: functional, organism-based
Rattus norvegicus [40] = experiment: Conc in kidney of male rat 2 hr after administration of dose; type: functional, organism-based
Rattus norvegicus [41] = experiment: Conc in intestine of male rat 1.5h after administration of dose; type: functional, organism-based
Rattus norvegicus [42] = experiment: Conc in serum of male rat 2 hr after administration of dose; type: functional, organism-based
Rattus norvegicus [43] = experiment: Conc in kidney of male rat 10h after administration of dose; type: functional, organism-based
Rattus norvegicus [44] = experiment: Conc in ovary of female rat 1 hr after administration of dose; type: functional, organism-based; details: Female gonad
Neisseria gonorrhoeae = experiment: Inhibition of growth of Neisseria gonorrhoeae; type: functional
Rattus norvegicus [45] = experiment: Conc in ovary of female rat 2 hr after administration of dose; type: functional, organism-based; details: Female gonad
Rattus norvegicus [46] = experiment: Conc in intestine of male rat 0.25 hr after administration of dose; type: functional, organism-based
Rattus norvegicus [47] = experiment: Conc in ovary of female rat 10h after administration of dose; type: functional, organism-based; details: Female gonad
Rattus norvegicus [48] = experiment: Conc in kidney of male rat 6 hr after administration of dose; type: functional, organism-based
Rattus norvegicus [49] = experiment: Conc in muscle of male rat 1 hr after administration of dose; type: functional, organism-based; details: Muscle tissue
Rattus norvegicus [50] = experiment: Conc in intestine of male rat 0.75h after administration of dose; type: functional, organism-based
Rattus norvegicus [51] = experiment: Conc in testes of male rat 0.50 hr after administration of dose; type: functional, organism-based; details: Testis
Rattus norvegicus [52] = experiment: Conc in lung of male rat 10h after administration of dose; type: functional, organism-based
Rattus norvegicus [53] = experiment: Conc in stomach of male rat 0.25 hr after administration of dose; type: functional, organism-based
Rattus norvegicus [54] = experiment: Conc in muscle of male rat 3h after administration of dose; type: functional, organism-based; details: Muscle tissue
Rattus norvegicus [55] = experiment: Conc in muscle of male rat 0.25 hr after administration of dose; type: functional, organism-based; details: Muscle tissue
Rattus norvegicus [56] = experiment: Conc in ovary of female rat 4 hr after administration of dose; type: functional, organism-based; details: Female gonad
Rattus norvegicus [57] = experiment: Conc in kidney of male rat 4 hr after administration of dose; type: functional, organism-based
Rattus norvegicus [58] = experiment: Conc in serum of male rat 4 hr after administration of dose; type: functional, organism-based
Rattus norvegicus [59] = experiment: Conc in stomach of male rat 1 hr after administration of dose; type: functional, organism-based
Rattus norvegicus [60] = experiment: Conc in lung of male rat 24 hr after administration of dose; type: functional, organism-based
Rattus norvegicus [61] = experiment: Conc in testes of male rat 24 hr after administration of dose; type: functional, organism-based; details: Testis
Rattus norvegicus [62] = experiment: Conc in stomach of male rat 0.75h after administration of dose; type: functional, organism-based
Rattus norvegicus [63] = experiment: Conc in serum of male rat 0.75h after administration of dose; type: functional, organism-based
Rattus norvegicus [64] = experiment: Conc in serum of male rat 6 hr after administration of dose; type: functional, organism-based
Rattus norvegicus [65] = experiment: Conc in testes of male rat 10h after administration of dose; type: functional, organism-based; details: Testis
Rattus norvegicus [66] = experiment: Conc in testes of male rat 4 hr after administration of dose; type: functional, organism-based; details: Testis

CC(C)c1cc(Cc2cnc(N)nc2N)cc(C(C)C)c1O
Concentration (Rattus norvegicus [1]): 0.91 µg/g
Concentration (Rattus norvegicus [2]): 4.06 µg/g
Concentration (Rattus norvegicus [3]): 0.04 µg/g
Concentration (Rattus norvegicus [4]): 1.45 µg/g
Concentration (Rattus norvegicus [5]): 7.78 µg/g
Concentration (Rattus norvegicus [6]): 0.41 µg/g
Concentration (Rattus norvegicus [7]): 26 µg/g
Concentration (Rattus norvegicus [8]): 0.47 µg/g
Concentration (Rattus norvegicus [9]): 9.56 µg/g
Concentration (Rattus norvegicus [10]): 1.34 µg/g
Concentration (Rattus norvegicus [11]): 1.52 µg/g
Concentration (Rattus norvegicus [12]): 1.01 µg/g
Concentration (Rattus norvegicus [13]): 0.9 µg/g
Concentration (Rattus norvegicus [14]): 11.9 µg/g
Concentration (Rattus norvegicus [15]): 0.19 µg/g
Concentration (Rattus norvegicus [16]): 4.98 µg/g
Concentration (Rattus norvegicus [17]): 6.74 µg/g
Concentration (Rattus norvegicus [18]): 0.16 µg/g
Concentration (Rattus norvegicus [19]): 1.4 µg/g
Concentration (Rattus norvegicus [20]): 0.34 µg/g
Concentration (Rattus norvegicus [21]): 46.1 µg/g
Concentration (Rattus norvegicus [22]): 4.13 µg/g
Concentration (Rattus norvegicus [23]): 0.14 µg/g
Concentration (Rattus norvegicus [24]): 8.31 µg/g
Concentration (Rattus norvegicus [25]): 0.04 µg/g
IC50 (Dihydrofolate reductase): 7.2 µM
Concentration (Rattus norvegicus [26]): 0.43 µg/g
Concentration (Rattus norvegicus [27]): 0.13 µg/g
Concentration (Rattus norvegicus [28]): 0.53 µg/g
Concentration (Rattus norvegicus [29]): 4.5 µg/g
Concentration (Rattus norvegicus [30]): 23.1 µg/g
Concentration (Rattus norvegicus [31]): 114 µg/g
MIC ratio (Proteus vulgaris): 300
MIC ratio (Klebsiella pneumoniae): 300
Concentration (Rattus norvegicus [32]): 2.29 µg/g
Concentration (Rattus norvegicus [33]): 0.8 µg/g
Concentration (Rattus norvegicus [34]): 7.17 µg/g
Concentration (Rattus norvegicus [35]): 2.52 µg/g
Concentration (Rattus norvegicus [36]): 1.32 µg/g
Concentration (Rattus norvegicus [37]): 5.14 µg/g
Concentration (Rattus norvegicus [38]): 4.48 µg/g
Concentration (Rattus norvegicus [39]): 17.4 µg/g
Concentration (Rattus norvegicus [40]): 4.08 µg/g
Concentration (Rattus norvegicus [41]): 14.9 µg/g
Concentration (Rattus norvegicus [42]): 0.49 µg/g
Concentration (Rattus norvegicus [43]): 1.13 µg/g
Concentration (Rattus norvegicus [44]): 3.33 µg/g
MIC (Neisseria gonorrhoeae): 9.2 µM (≈ 2.76 µg/mL)
Concentration (Rattus norvegicus [45]): 1.93 µg/g
Concentration (Rattus norvegicus [46]): 158 µg/g
Concentration (Rattus norvegicus [47]): 0.23 µg/g
Concentration (Rattus norvegicus [48]): 1.55 µg/g
Concentration (Rattus norvegicus [49]): 2.36 µg/g
Concentration (Rattus norvegicus [50]): 112 µg/g
Concentration (Rattus norvegicus [51]): 1.07 µg/g
Concentration (Rattus norvegicus [52]): 0.4 µg/g
Concentration (Rattus norvegicus [53]): 387 µg/g
Concentration (Rattus norvegicus [54]): 1.38 µg/g
Concentration (Rattus norvegicus [55]): 0.44 µg/g
Concentration (Rattus norvegicus [56]): 1.55 µg/g
Concentration (Rattus norvegicus [57]): 2.07 µg/g
Concentration (Rattus norvegicus [58]): 0.42 µg/g
Concentration (Rattus norvegicus [59]): 47 µg/g
Concentration (Rattus norvegicus [60]): 0.1 µg/g
Concentration (Rattus norvegicus [61]): 0.15 µg/g
Concentration (Rattus norvegicus [62]): 319 µg/g
Concentration (Rattus norvegicus [63]): 1.13 µg/g
Concentration (Rattus norvegicus [64]): 0.27 µg/g
Concentration (Rattus norvegicus [65]): 0.66 µg/g
Concentration (Rattus norvegicus [66]): 1.01 µg/g
